From patent US5601801A, “Radiolabelled angiotensin converting enzyme inhibitors” (Merck Frosst Canada, Inc., priority 1994, dated 1997)
Where two headings read alike, the source gives them in different places.

Biological target: T1, angiotensin converting enzyme (ACE) (Oryctolagus cuniculus, UniProt P12822)
T1 construct: a slurry of 10 g of lyophilized rabbit lung powder (Pel-Freez); tissue Pel-Freez; host or cells: rabbit lung (lyophilized powder, buffer extract)
T1 sequence (P12822 34-1310): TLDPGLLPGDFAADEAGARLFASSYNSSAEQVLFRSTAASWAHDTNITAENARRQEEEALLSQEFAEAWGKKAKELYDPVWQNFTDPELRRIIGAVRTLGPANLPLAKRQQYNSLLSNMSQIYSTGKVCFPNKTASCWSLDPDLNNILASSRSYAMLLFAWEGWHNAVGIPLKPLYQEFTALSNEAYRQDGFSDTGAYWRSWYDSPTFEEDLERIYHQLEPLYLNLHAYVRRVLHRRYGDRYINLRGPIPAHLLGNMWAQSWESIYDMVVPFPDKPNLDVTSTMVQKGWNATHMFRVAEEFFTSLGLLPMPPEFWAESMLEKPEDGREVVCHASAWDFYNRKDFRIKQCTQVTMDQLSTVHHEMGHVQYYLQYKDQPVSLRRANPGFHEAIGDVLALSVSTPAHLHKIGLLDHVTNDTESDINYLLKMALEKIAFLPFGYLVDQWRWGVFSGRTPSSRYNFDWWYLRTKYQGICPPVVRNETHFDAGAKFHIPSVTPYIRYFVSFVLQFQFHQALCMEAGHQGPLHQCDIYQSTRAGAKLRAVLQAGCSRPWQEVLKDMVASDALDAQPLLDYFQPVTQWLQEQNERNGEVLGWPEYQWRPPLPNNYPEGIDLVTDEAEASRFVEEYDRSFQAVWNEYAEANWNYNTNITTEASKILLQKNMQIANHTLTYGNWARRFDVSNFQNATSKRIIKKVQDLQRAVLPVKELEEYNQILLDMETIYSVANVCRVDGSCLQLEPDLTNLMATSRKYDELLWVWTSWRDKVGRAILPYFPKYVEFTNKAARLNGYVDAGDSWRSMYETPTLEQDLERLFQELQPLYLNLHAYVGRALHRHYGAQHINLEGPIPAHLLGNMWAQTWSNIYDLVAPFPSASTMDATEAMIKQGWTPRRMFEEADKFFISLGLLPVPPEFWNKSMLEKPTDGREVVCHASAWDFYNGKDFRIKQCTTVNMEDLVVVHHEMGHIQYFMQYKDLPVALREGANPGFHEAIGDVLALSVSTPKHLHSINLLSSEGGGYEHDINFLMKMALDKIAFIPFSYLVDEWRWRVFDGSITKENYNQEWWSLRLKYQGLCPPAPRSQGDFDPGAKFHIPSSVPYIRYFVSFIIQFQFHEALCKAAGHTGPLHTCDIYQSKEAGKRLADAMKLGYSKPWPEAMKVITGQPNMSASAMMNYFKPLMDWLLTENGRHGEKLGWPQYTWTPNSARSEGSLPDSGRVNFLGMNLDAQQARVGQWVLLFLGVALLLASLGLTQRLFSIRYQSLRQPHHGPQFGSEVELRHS
Experiment: IC50 Assay (Cushman and Cheung; hippuryl-L-histidyl-L-leucine hydrolysis by rabbit lung powder extract)
Format: biochemical
Procedure: According to the assay of Cushman and Cheung Biochem. Pharmacol 20, 1637, (1971), a slurry of 10 g of lyophilized rabbit lung powder (Pel-Freez) and 100 mL of 50 mM potassium phosphate buffer, pH 8.3, was blended for three one minute intervals followed by centrifugation for 40 minutes at 17,500 rpm. The clear supernatant was assayed for protein by the modified Lowry test and the volume of the rabbit lung powder extract (RLPE) was adjusted with buffer, 100 mM phosphate buffer prepared to yield a pH of 8.3 in the presence of 300 mM NaCl, to give 10-20 mU of angiotensin converting enzyme (ACE) activity in a 100 μL volume. The assay was carried out in 13×100 mm disposable culture tubes, with each assay tube containing 100 μL RLPE, 50 μL of a 12.5 mM solution of hippuryl-L-histidyl-L-leucine (HHL) (Sigma) in a buffer and 100 μL of inhibitor solution made up in buffer. The enzyme is added last to initiate the reaction and the tubes are incubated at 37° C. for one hour. The assay is terminated by the addition of 250 μL of 1M HCl to each tube; the HCl is added before the enzyme in the zero-time control assays. To each tube is added 1.5 mL of ethyl acetate followed by vortex mixing for 15 seconds. After the tubes have been centrifuged at 2,500 rpm for 5 minutes, 1 mL of the ethyl acetate layer is transferred to a clean 12×75 mm disposable culture tube. The ethyl acetate was evaporated by heating at 90° C. in a water bath for 30 minutes. Addition of 1 mL of water to each tube followed by vortex mixing for 15 seconds redissolves the hippuric acid. […]

Structure (SMILES)	A228 ± SD (-log[MIBA] 7.246)	A228 ± SD (-log[MIBA] 8.246)	A228 ± SD (-log[MIBA] 9.246)	A228 ± SD (-log[MIBA] 10.246)	A228 ± SD (-log[MIBA] 11.246)	IC50 (rabbit lung ACE, HHL substrate, pH 8.3, 37° C., one hour, read-out: IC50)	IC50	A228 ± SD (-log[Lisin] 6.206)	A228 ± SD (-log[Lisin] 7.206)	A228 ± SD (-log[Lisin] 8.206)	A228 ± SD (-log[Lisin] 9.206)	A228 ± SD (-log[Lisin] 10.206)
O=C(NCCCC[C@H](N[C@@H](CCc1ccccc1)C(=O)O)C(=O)N1CCC[C@H]1C(=O)O)c1cccc(I)c1 [lisinopril MIBA]	0.025 ± 0.007	0.224 ± 0.016	1.196 ± 0.026	2.174 ± 0.047	2.360 ± 0.060	0.6 nM	–	–	–	–	–	–
NCCCC[C@H](N[C@@H](CCc1ccccc1)C(=O)O)C(=O)N1CCC[C@H]1C(=O)O [lisinopril, reference compound]	–	–	–	–	–	–	5.4 nM	0.029 ± 0.007	0.175 ± 0.007	0.946 ± 0.012	2.275 ± 0.031	2.371 ± 0.060
